Source: patent US8802662B2, “Anti-hepatitis C composition and method for preparing drug for inhibiting hepatitis C viruses or treating hepatitis C” (Industrial Technology Research Institute, priority 2009, dated 2014)
Values after ≈ are worked out from the molar mass of the structure shown.

Assays:
[1] = tested on: HCV replicon (I389luc-ubi-NS3-3′/ET) in Huh-luc/neo-ET cell; test: HCV replication inhibition by firefly luciferase activity in Huh-luc/neo-ET cells (HCV replicon system); conditions: for IC50 / IC90: Hepatitis C virus, Huh-luc/neo-ET, 48 h; for IC50: read-out: IC50: 50% of the HCV replication inhibition concentration, Huh-luc/neo-ET cells, luciferase activity, co-cultured 2 days; for IC90: read-out: IC90: 90% of the HCV replication inhibition concentration; for IC50: 50% of the HCV replication inhibition concentration: Huh-luc/neo-ET cells, luciferase activity, co-cultured 2 days; for EW (effect window, CC50/IC50): ratio of CC50 to IC50 in Huh-luc/neo-ET cells
Description: The Huh-luc/neo-ET cell has I389luc-ubi-NS3-3′/ET replicon and could be used to monitor the replicative capability of the HCV. The Huh-luc/neo-ET is able to express a firefly luciferase-ubiquitin-neomycin fusion protein translated by the internal ribosomal entry site (IRES) of the hepatitis C virus and is able to express the hepatitis C viral nonstructural protein (NS3-5B) including protease, helicase and polymerase translated by the IRES of the encephalomyocarditis virus (EMCV). When the replication complex composed of the IRES of the hepatitis C virus or the nonstructural protein of the hepatitis C virus is influenced by a candidate, the effect of the candidate for inhibiting the activity of the hepatitis C virus repilcon can be estimated by determining the intensity of the firefly luciferase activity. The hepatitis C virus inhibition effect of the limonoid compound can be determined by determining the firefly luciferase activity expressed by the Huh-luc/noe-ET cell in presence of the limonoid compound.
5.96 g of chuanlianzi ethanol extract was dissolved in 20 ml of a mixture of methanol and water and extracted with 15 ml of n-hexane, diethyl ether, dichloromethane and ethyl acetate for 2-3 times, respectively to obtain an n-hexane layer extraction solution, diethyl ether layer extraction solution, dichloromethane layer extraction solution and ethyl acetate layer extraction solution, respectively. Each layer extraction solution was concentrated and dried to obtain an n-hexane layer extract, diethyl ether layer extract, dichloromethane layer extract and ethyl acetate layer extract, respectively. The hepatitis C inhibition activity of each layer extract was determined by using a Huh-luc/neo-ET cell (HCV replication system) for testing thereof.
The Huh-luc/neo-ET cells were co-cultured with toosendanin with concentrations of 0.15 μg/ml, 0.075 μg/ml, 0.038 μg/ml, 0.019 μg/ml and 0.0085 μg/ml, respectively for 2 days and then were washed twice by 100 μl of 1×PBS (1 mM KH2PO4, 10 mM Na2HPO4, 137 mM NaCl, 2.7 mM KCl) and PBS was removed. 35 μl of 1× passive lysis buffer (Promega, E1941) was added to the cells and vortexed by a vortexer for 10 minutes to thoroughly mix the cells.
Cell suspension with an amount of 30 μl/well was added to a 96 well white plate(NUNC, 236108) for measuring luciferase activity, and 40 μl/well of luminescence analysis buffer and 20 μl/well of luminescence substrate (1 mM D-Luciferin) were sequentially added into the 96 well white plates. After the substrate was added, a microplate luminescence meter (Berthold, MPL4) was used to measure the luciferase activity (Rlu/s).
The luciferase activity of the control group was used as a standard to calculate the hepatitis C virus inhibition rates (%) of the experiment groups. The formula of inhibition rates (%) was: {[(luciferase activity of control group)−(luciferase activity of experiment group)]/(luciferase activity of control group)}×100%. After the sample was serial diluted and the HCV replication inhibition rates were determined at different concentrations, 50% of the HCV replication inhibition concentration (IC50) was calculated by grafit5 software (Erithacus Software).
For each experiment, except for the PEG IFN alpha-2a with concentrations of 0.5 ng/ml and 0.1 ng/ml were used as positive controls for the IC50 test. Additionally, cyclosporine A (CsA) with a concentration of 1 μg/ml was also used as a positive control for the IC50 test.
The experiment procedure was the same as Example 2 while the testing sample was replaced with Trichilin H. The Huh-luc/neo-ET cells were co-cultured with Trichilin H with concentrations of 0.75 μg/ml, 0.5 μg/ml, 0.25 μg/ml and 0.125 μg/ml, respectively.

Huh-luc/neo-ET cells = test: in vitro; type: cell-based; conditions: MTT, culturing for two days; for CC15: 15% of the cell cytotoxic concentration: from trend line formula (y = 85)
Protocol: (§1) Huh-luc/neo-ET cells with concentration of 2.5×10^4 cells/100 μl/well were seeded into a 96 well culture plate (Corning Incorporation COSTAR, 3599) and placed into a cell incubator for culturing.
(§2) The next day, a toosendanin sample was diluted with a DMEM culture medium to the concentrations of 28.73 μg/ml, 9.57 μg/ml, 3.19 μg/ml, 1.06 μg/ml, 0.35 μg/ml, 0.11 μg/ml, 0.039 μg/ml and 0.013 μg/ml, respectively, or to become the concentrations of 114.92 μg/ml, 38.33 μg/ml, 12.77 μg/ml, 4.25 μg/ml, 1.42 μg/ml, 0.46 μg/ml, 0.16 μg/ml and 0.057 μg/ml, respectively. The initial medium in the 96 well culture plate was sucked out by a vacuum pump (DOAT-704AA) without removing the cells. Then, the toosendanin culture medium with concentrations mentioned above were added into the 96 well culture plate containing cells with amount of 100 μl/well as experiment groups while untreated culture medium were added to the cells as a control group.
(§3) Then, PBS was removed and 50 μl of medium containing MTT (Sigma, M2128) with a concentration of 0.5 mg/ml was added into each well of the 96 well culture plate. After the 96 well culture plate was placed in a CO2 culture incubator for 1 hour, DMSO (Riedel-de Haën, 60153) with amount of 150 μl/well was added into the 96 well culture plate and vortexed by a votexer (KS shaker Type 670) to thoroughly mix the resulting purple precipitate. After the purple precipitate was thoroughly mixed, the 96 well culture plate was placed in a continuous wave length microwell plate analysis system (Molecular Devices, SPECTRAMAX 190) to measure the absorbance of cells at 560 nm.
(§4) The average absorbance of the control groups was used as 100% of the cell survival rates (%) to calculate the cell survival rates (%) of the experiment groups with different concentrations of toosendanin samples. The formula of the cell survival rate was: (absorbance of experiment group/absorbance of the control group)×100%. The cell survival rates of all experiment groups were drawn to form an x-y graph and thus a trend line formula with R^2 value greater than 0.9 was obtained.
(§5) In the trend line formula, when y was 50, the resulting X meant 50% of the cell cytotoxic concentration (CC50) or when y was 85, the resulting X meant 15% of the cell cytotoxic concentration (CC15). Due to the property of the sample, CC15 was calculated from the trend line formula generated by the experiment groups containing samples with concentrations of 3.19 μg/ml, 1.06 μg/ml, 0.35 μg/ml, 0.11 μg/ml and 0.039 μg/ml.
(§6) When the cell survival rates (%) was greater than 85%, it meant that the sample at or less than the concentration (the concentration less than CC15) was non-cytotoxic. […]

in vitro = type: cell-based; conditions: human, Huh-luc/neo-ET cells, MTT, culturing for two days; read-out: CC50: 50% of the cell cytotoxic concentration
Protocol: as §1, §2, §3, §4, §5, §6

CC(=O)O[C@@H]1C[C@H](O)[C@@]23CO[C@@H](O)[C@]1(C)[C@@H]2C[C@@H](O)[C@]1(C)[C@@H]3C(=O)[C@H](OC(C)=O)[C@@]2(C)[C@H](c3ccoc3)C[C@H]3O[C@]321 [Toosendanin, toosendanin]
IC50 [1]: < 0.05 µg/mL | IC90 [1]: 0.35 µg/mL (≈ 0.609 µM) | IC50: 50% of the HCV replication inhibition concentration [1]: 0.045 ± 0.004 µg/mL | EW (effect window, CC50/IC50) [1]: >2531.6 | EW (effect window, CC50/IC50) ([1]; listed as toosendanin): greater than 2500 | CC50: 50% of the cell cytotoxic concentration (Huh-luc/neo-ET cells): >114 µg/mL | CC15: 15% of the cell cytotoxic concentration (Huh-luc/neo-ET cells): 0.34 µg/mL

CC(=O)OC1C(OC(C)=O)C2(C)C(OC(=O)C(C)C)OCC3(C1O)C2CC(O)C1(C)C3C(=O)C(OC(C)=O)C2(C)C(c3ccoc3)CC3OC321 (stereo not drawn) [Trichilin H]
IC50 [1]: < 0.5 µg/mL | IC90 [1]: 0.9 µg/mL (≈ 1.28 µM) | IC50: 50% of the HCV replication inhibition concentration [1]: 0.48 ± 0.10 µg/mL | CC50 (in vitro): > 50 µg/mL | CC15: 15% of the cell cytotoxic concentration (Huh-luc/neo-ET cells): 0.7 µg/mL
